Results taken from BindingDB's records for doi:10.1016/s0960-894x(01)00395-x (Novo Nordisk, 2001).

Target: Glucose-6-phosphatase catalytic subunit (Sus scrofa)
Assay: Compound was evaluated for inhibition of Glucose-6-Phosphatase from Triton X-100 disrupted pig liver microsomes.

| SMILES | IC50 [µM] |
| --- | --- |
| Oc1ccc(/C=N/N(Cc2ccccc2)Cc2ccccc2)cc1 [4-(Dibenzyl-hydrazonomethyl)-phenol] | 2.4 |
| COc1ccccc1/C=N/N(Cc1ccccc1)Cc1ccccc1 [N,N-Dibenzyl-N'-[1-(2-methoxy-phenyl)-meth-(E)-ylidene]-hydrazine] | > 100 |
| Clc1ccc(/C=N/N(Cc2ccccc2)Cc2ccccc2)cc1Cl [N,N-Dibenzyl-N'-[1-(3,4-dichloro-phenyl)-meth-(E)-ylidene]-hydrazine] | 2 |
| Clc1cc(Cl)cc(/C=N/N(Cc2ccccc2)Cc2ccccc2)c1 [N,N-Dibenzyl-N'-[1-(3,5-dichloro-phenyl)-meth-(E)-ylidene]-hydrazine] | > 100 |
| Clc1ccc(/C=N/N(Cc2ccccc2)Cc2ccccc2)cc1 [N,N-Dibenzyl-N'-[1-(4-chloro-phenyl)-meth-(E)-ylidene]-hydrazine] | 0.24 |
| COc1ccc(/C=N/N(Cc2ccccc2)Cc2ccccc2)cc1 [N,N-Dibenzyl-N'-[1-(4-methoxy-phenyl)-meth-(E)-ylidene]-hydrazine] | 0.22 |
| Clc1ccc(/C=N/N(Cc2ccccc2)Cc2ccccc2)s1 [N,N-Dibenzyl-N'-[1-(5-chloro-thiophen-2-yl)-meth-(E)-ylidene]-hydrazine] | 0.17 |
| CCc1ccc(/C=N/N(Cc2ccccc2)Cc2ccccc2)o1 [N,N-Dibenzyl-N'-[1-(5-ethyl-furan-2-yl)-meth-(E)-ylidene]-hydrazine] | 0.33 |
| C(=N\N(Cc1ccccc1)Cc1ccccc1)/c1ccco1 [N,N-Dibenzyl-N'-[1-furan-2-yl-meth-(E)-ylidene]-hydrazine] | 1.1 |
| C(=N\N(Cc1ccccc1)Cc1ccccc1)/c1ccccc1 [N,N-Dibenzyl-N'-[1-phenyl-meth-(E)-ylidene]-hydrazine] | 1.5 |
| C(=N\N(Cc1ccccc1)Cc1ccccc1)/c1cccnc1 [N,N-Dibenzyl-N'-[1-pyridin-3-yl-meth-(E)-ylidene]-hydrazine] | 3.7 |
| C(=N\N(Cc1ccccc1)Cc1ccccc1)/c1cccs1 [N,N-Dibenzyl-N'-[1-thiophen-2-yl-meth-(E)-ylidene]-hydrazine] | 1.5 |
| COc1ccc2c(c1)CCCC2=NN(Cc1ccccc1)Cc1ccccc1 [N,N-Dibenzyl-N'-[6-methoxy-3,4-dihydro-2H-naphthalen-(1E)-ylidene]-hydrazine] | > 50 |
| CN(C)c1ccc(/C=N/N(Cc2ccccc2)Cc2ccccc2)cc1 [[4-(Dibenzyl-hydrazonomethyl)-phenyl]-dimethyl-amine] | 100 |
| OCc1ccc(/C=N/N(Cc2ccccc2)Cc2ccccc2)o1 [[5-(Dibenzyl-hydrazonomethyl)-furan-2-yl]-methanol] | 16 |
